Holding throughout (format): biochemical
The target in test [1] is T1, TYK2 (aa 871-1187, catalytic domain, GST-tag) (Homo sapiens, UniProt P29597).
T1 construct: JAK1 (aa 850-1154) and TYK2 (aa 871-1187) are expressed with an N-terminally fused GST-tag; GST (N); purchased Carna Biosciences, Inc; host or cells: baculovirus expression system
T1 sequence (P29597 871-1187): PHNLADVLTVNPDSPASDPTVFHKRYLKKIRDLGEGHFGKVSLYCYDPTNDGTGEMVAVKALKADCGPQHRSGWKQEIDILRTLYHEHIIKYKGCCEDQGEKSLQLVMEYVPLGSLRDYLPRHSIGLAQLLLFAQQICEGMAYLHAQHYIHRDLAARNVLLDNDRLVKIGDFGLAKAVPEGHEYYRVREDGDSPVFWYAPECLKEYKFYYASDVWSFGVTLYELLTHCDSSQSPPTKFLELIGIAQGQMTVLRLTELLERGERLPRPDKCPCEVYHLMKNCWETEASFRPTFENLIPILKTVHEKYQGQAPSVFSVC
As to the kind of experiment: JAK kinase assay (HTRF, phosphorylation of TK substrate-biotin), TYK2. Particulars: ATP at Km (13 μM). An outline of the steps: (§1)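 Compound was mixed with TK substrate-biotin (1 μM final), then kinase plus ATP at its Km was added and left 20-30 min at room temperature. Detection mix with EDTA, Streptavidin-XL665 and STK Ab Cryptate stopped the reaction; after overnight dark incubation, HTRF was read and EC50 derived.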

The target in test [2] is T2, JAK1 (aa 850-1154, catalytic domain, GST-tag) (Homo sapiens, UniProt P23458).
T2 construct: JAK1 (aa 850-1154) and TYK2 (aa 871-1187) are expressed with an N-terminally fused GST-tag; GST (N); purchased Carna Biosciences, Inc; host or cells: baculovirus expression system
T2 sequence (P23458 850-1154): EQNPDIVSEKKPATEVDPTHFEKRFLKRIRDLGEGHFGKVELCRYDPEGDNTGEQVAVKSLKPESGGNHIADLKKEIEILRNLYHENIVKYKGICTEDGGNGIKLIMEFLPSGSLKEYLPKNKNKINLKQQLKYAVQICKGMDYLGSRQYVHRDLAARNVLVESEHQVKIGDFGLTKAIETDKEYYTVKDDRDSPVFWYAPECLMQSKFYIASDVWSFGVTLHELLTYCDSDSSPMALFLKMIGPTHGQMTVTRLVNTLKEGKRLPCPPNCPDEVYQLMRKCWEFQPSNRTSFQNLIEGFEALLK
As to the kind of experiment: JAK kinase assay (HTRF, phosphorylation of TK substrate-biotin), JAK1. As to conditions: ATP at Km (7 μM). An outline of the steps: as §1
In general terms: In TR-FRET formats the signal depends on donor and acceptor labels being close together.

Test [3] concerns the target T3, JAK3 (catalytic domain, His-tag) (Homo sapiens, UniProt P52333).
T3 construct: All four purified enzymes contain only the catalytic domain; His (N); purchased Carna Biosciences, Inc; host or cells: baculovirus expression system
As to the kind of experiment: JAK kinase assay (HTRF, phosphorylation of TK substrate-biotin), JAK3. Particulars: ATP at Km (2 μM). An outline of the steps: as §1

In test [4] the target is T4, JAK2 (catalytic domain, His-tag) (Homo sapiens, UniProt O60674).
T4 construct: All four purified enzymes contain only the catalytic domain; His (N); purchased Carna Biosciences, Inc; host or cells: baculovirus expression system
T4 sequence (O60674 849-1124 limits assumed): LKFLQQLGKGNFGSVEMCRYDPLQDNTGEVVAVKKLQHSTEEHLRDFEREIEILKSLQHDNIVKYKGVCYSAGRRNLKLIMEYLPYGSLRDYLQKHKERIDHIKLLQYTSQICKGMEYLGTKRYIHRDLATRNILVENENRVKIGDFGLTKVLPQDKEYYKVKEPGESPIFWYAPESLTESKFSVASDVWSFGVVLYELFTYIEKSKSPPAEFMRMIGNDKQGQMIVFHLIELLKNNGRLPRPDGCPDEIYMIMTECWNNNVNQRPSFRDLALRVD
As to the kind of experiment: JAK kinase assay (HTRF, phosphorylation of TK substrate-biotin), JAK2. As to conditions: ATP at Km (4 μM). The method in brief:
as §1

[5] abbreviates: HTRF assay, read-out: TYK2 kinase inhibitory activity (EC50 indicator).
The mark [6] stands for this setting: HTRF assay, read-out: JAK1 kinase inhibitory activity (EC50 indicator).
The mark [7] stands for this setting: HTRF assay, read-out: JAK3 kinase inhibitory activity (EC50 indicator).
The mark [8] stands for this setting: HTRF assay, read-out: JAK2 kinase inhibitory activity (EC50 indicator).
Where [9] appears, read: read-out: TYK2 kinase inhibitory activity (EC50 indicator).
[10] abbreviates: read-out: JAK1 kinase inhibitory activity (EC50 indicator).
[11] abbreviates: read-out: JAK3 kinase inhibitory activity (EC50 indicator).
Setting [12] is: read-out: JAK2 kinase inhibitory activity (EC50 indicator).

What is called EC50 is the concentration needed to bring the measured effect to its halfway point.

Where two headings read alike, the source gives them in different places. Bounds are passed on as bounds.

T3 sequence (P52333 822-1111 limits assumed): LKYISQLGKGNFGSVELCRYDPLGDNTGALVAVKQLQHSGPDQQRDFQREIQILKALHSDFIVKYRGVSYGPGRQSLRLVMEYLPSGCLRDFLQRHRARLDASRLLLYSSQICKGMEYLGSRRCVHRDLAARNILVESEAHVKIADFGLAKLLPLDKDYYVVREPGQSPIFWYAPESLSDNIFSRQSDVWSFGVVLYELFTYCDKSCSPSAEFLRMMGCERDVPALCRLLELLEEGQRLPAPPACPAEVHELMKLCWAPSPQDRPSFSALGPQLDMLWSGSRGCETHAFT

Turning to `N#Cc1ccc(C(=O)N2[C@@H]3CC[C@@H]2CN(c2ncnc4[nH]ccc24)C3)c(F)c1` [Example 351, 3-Fluoro-4-[3-(7H-pyrrolo[2,3-d]pyrimidin-4-yl)-3,8-diaza-bicyclo[3.2.1]octane-8-carbonyl]-benzonitrile], the EC50 was over 500 nM in test [1] (setting [5]), under 100 nM in test [2] (setting [6]), 100 to 500 nM in test [3] (setting [7]) and under 100 nM in test [4] (setting [8]).
For `O=C1CCC(C(=O)N2CCN(c3ncnc4[nH]ccc34)CC23CC3)CC1` [Example 23, 4-[7-(7H-Pyrrolo[2,3-d]pyrimidin-4-yl)-4,7-diazaspiro[2.5]octane-4-carbonyl]cyclohexanone], the EC50 in test [1] (setting [9]) is 100 to 500 nM; in test [2] (setting [10]), under 100 nM; in test [3] (setting [11]), under 100 nM; in test [4] (setting [12]) it was under 100 nM.
Take `COC(=O)c1cc2c(N3CCN(C(=O)Cc4cccc(C#N)c4)C4(CC4)C3)ncnc2[nH]1` [Example 123, 4-{4-[2-(3-Cyano-phenyl)-acetyl]-4,7-diaza-spiro[2.5]oct-7-yl}-7H-pyrrolo[2,3-d]pyrimidine-6-carboxylic acid methyl ester]: the EC50 in test [1] (setting [9]), in test [2] (setting [10]), in test [3] (setting [11]) and in test [4] (setting [12]) was over 500 nM in each case.
Consider `N#Cc1ccc(CC(=O)N2CCN(c3nc(NC(=O)c4ccno4)nc4[nH]ccc34)CC23CC3)cc1` [Example 99, Isoxazole-5-carboxylic acid (4-{4-[2-(4-cyano-phenyl)-acetyl]-4,7-diaza-spiro[2.5]oct-7-yl}-7H-pyrrolo[2,3-d]pyrimidin-2-yl)-amide], for which the EC50 is over 500 nM in test [1] (setting [9]), 100 to 500 nM in test [2] (setting [10]), over 500 nM in test [3] (setting [11]) and under 100 nM in test [4] (setting [12]).
Regarding `O=C(c1cnccn1)N1CCN(c2ncnc3[nH]ccc23)CC12CC2` [Example 19, Pyrazin-2-yl-[7-(7H-pyrrolo[2,3-d]pyrimidin-4-yl)-4,7-diazaspiro[2.5]oct-4-yl]methanone], the EC50 is 100 to 500 nM in test [1] (setting [9]), under 100 nM in test [2] (setting [10]), under 100 nM in test [3] (setting [11]) and under 100 nM in test [4] (setting [12]).
As for `O=C(Cc1cccs1)N1CCN(c2ncnc3[nH]ccc23)CC12CC2` [Example 190, 1-[7-(7H-Pyrrolo[2,3-d]pyrimidin-4-yl)-4,7-diaza-spiro[2.5]oct-4-yl]-2-thiophen-2-yl-ethanone], the EC50 was 100 to 500 nM in test [1] (setting [9]), under 100 nM in test [2] (setting [10]), under 100 nM in test [3] (setting [11]) and under 100 nM in test [4] (setting [12]).
On to `CCOC(=O)N1[C@@H]2CC[C@H]1CN(c1ncnc3[nH]ccc13)C2` [Example 52, 3-(7H-Pyrrolo[2,3-d]pyrimidin-4-yl)-3,8-diazabicyclo[3.2.1]octane-8-carboxylic acid ethyl ester], for which the EC50 was 100 to 500 nM in test [1] (setting [9]), 100 to 500 nM in test [2] (setting [10]), 100 to 500 nM in test [3] (setting [11]) and under 100 nM in test [4] (setting [12]).
For the compound `NS(=O)(=O)c1ccc(CC(=O)N2CCN(c3ncnc4[nH]ccc34)CC23CC3)cc1` [Example 191, 4-{2-Oxo-2-[7-(7H-pyrrolo[2,3-d]pyrimidin-4-yl)-4,7-diaza-spiro[2.5]oct-4-yl]-ethyl}-benzenesulfonamide], the EC50 in test [1] (setting [9]) is over 500 nM; in test [2] (setting [10]) it was under 100 nM; in test [3] (setting [11]) it was under 100 nM; in test [4] (setting [12]) it was under 100 nM.
For the compound `O=C(c1ccc2[nH]ccc2c1)N1[C@@H]2CC[C@H]1CN(c1ncnc3[nH]ccc13)C2` [Example 341, (1H-Indol-5-yl)-[3-(7H-pyrrolo[2,3-d]pyrimidin-4-yl)-3,8-diaza-bicyclo[3.2.1]oct-8-yl]-methanone], the EC50 was 100 to 500 nM in test [1] (setting [5]), under 100 nM in test [2] (setting [6]), under 100 nM in test [3] (setting [7]) and under 100 nM in test [4] (setting [8]).
For `N#Cc1ccc(CC(=O)N2CCN(c3nc(NC(=O)c4ccccc4)nc4[nH]ccc34)CC23CC3)cc1` [Example 98, N-(4-{4-[2-(4-Cyano-phenyl)-acetyl]-4,7-diaza-spiro[2.5]oct-7-yl}-7H-pyrrolo[2,3-d]pyrimidin-2-yl)-benzamide], the EC50 in test [1] (setting [9]), in test [2] (setting [10]), in test [3] (setting [11]) and in test [4] (setting [12]) was over 500 nM throughout.
As for `N#Cc1ccc(C(=O)C(=O)N2C3CCC2CN(c2ncnc4[nH]ccc24)C3)cc1` [Example 128, 4-{2-Oxo-2-[3-(7H-pyrrolo[2,3-d]pyrimidin-4-yl)-3,8-diaza-bicyclo[3.2.1]oct-8-yl]-acetyl}-benzonitrile], the EC50 is over 500 nM in test [1] (setting [9]), under 100 nM in test [2] (setting [10]), 100 to 500 nM in test [3] (setting [11]) and under 100 nM in test [4] (setting [12]).
Regarding `N#CCCCC(=O)N1CCN(c2ncnc3[nH]ccc23)CC12CC2` [Example 298, 5-Oxo-5-[7-(7H-pyrrolo[2,3-d]pyrimidin-4-yl)-4,7-diaza-spiro[2.5]oct-4-yl]-pentanenitrile], the EC50 was 100 to 500 nM in test [1] (setting [5]), under 100 nM in test [2] (setting [6]), under 100 nM in test [3] (setting [7]) and under 100 nM in test [4] (setting [8]).
Take `O=C(c1cc2c(F)cccc2[nH]1)N1CCN(c2ncnc3[nH]ccc23)CC12CC2` [Example 368, (4-Fluoro-1H-indol-2-yl)-[7-(7H-pyrrolo[2,3-d]pyrimidin-4-yl)-4,7-diaza-spiro[2.5]oct-4-yl]-methanone]: the EC50 was 100 to 500 nM in test [1] (setting [5]), under 100 nM in test [2] (setting [6]), 100 to 500 nM in test [3] (setting [7]) and under 100 nM in test [4] (setting [8]).
In the case of `Cc1cc(C(=O)N2CCN(c3ncnc4[nH]ccc34)CC23CC3)ccc1S(C)(=O)=O` [Example 403, (4-Methanesulfonyl-3-methyl-phenyl)-[7-(7H-pyrrolo[2,3-d]pyrimidin-4-yl)-4,7-diaza-spiro[2.5]oct-4-yl]-methanone], the half-maximal effective concentration (EC50) is 100 to 500 nM in test [1] (setting [5]), under 100 nM in test [2] (setting [6]), 100 to 500 nM in test [3] (setting [7]) and under 100 nM in test [4] (setting [8]).
`O=C(Cc1cccs1)N1[C@@H]2CC[C@H]1CN(c1ncnc3[nH]ccc13)C2` [Example 109, 1-[3-(7H-Pyrrolo[2,3-d]pyrimidin-4-yl)-3,8-diaza-bicyclo[3.2.1]oct-8-yl]-2-thiophen-2-yl-ethanone]: the 50% effective concentration (EC50) in test [1] (setting [9]) is over 500 nM; in test [2] (setting [10]), under 100 nM; in test [3] (setting [11]) it was 100 to 500 nM; in test [4] (setting [12]) it was under 100 nM.
As to `N#CCCN1CCCC(C(=O)N2CCN(c3ncnc4[nH]ccc34)CC23CC3)C1` (stereo not shown) [Example 95, 3-{3-[7-(7H-Pyrrolo[2,3-d]pyrimidin-4-yl)-4,7-diaza-spiro[2.5]octane-4-carbonyl]-piperidin-1-yl}-propionitrile], the EC50 in test [1] (setting [9]) is over 500 nM; in test [2] (setting [10]), 100 to 500 nM; in test [3] (setting [11]), over 500 nM; in test [4] (setting [12]), 100 to 500 nM.
For `COCCC(=O)N1CCN(c2ncnc3[nH]ccc23)CC12CC2` [Example 456, 3-Methoxy-1-[7-(7H-pyrrolo[2,3-d]pyrimidin-4-yl)-4,7-diaza-spiro[2.5]oct-4-yl]-propan-1-one], the EC50 in test [1] (HTRF assay, read-out: TYK2 kinase inhibitory activity (EC50)) is over 500 nM; in test [2] (HTRF assay, read-out: JAK1 kinase inhibitory activity (EC50)) it was 100 to 500 nM; in test [3] (HTRF assay, read-out: JAK3 kinase inhibitory activity (EC50)) it was 100 to 500 nM; in test [4] (HTRF assay, read-out: JAK2 kinase inhibitory activity (EC50)), 100 to 500 nM.
On to `N#CCc1ccccc1C(=O)N1CCN(c2ncnc3[nH]ccc23)CC12CC2` [Example 300, {2-[7-(7H-Pyrrolo[2,3-d]pyrimidin-4-yl)-4,7-diaza-spiro[2.5]octane-4-carbonyl]-phenyl}-acetonitrile], for which the EC50 in test [1] (setting [5]) is 100 to 500 nM; in test [2] (setting [6]), under 100 nM; in test [3] (setting [7]), 100 to 500 nM; in test [4] (setting [8]), under 100 nM.
Turning to `O=C(c1cc2ccccc2s1)N1CCN(c2ccnc3[nH]ccc23)CC12CC2` [Example 82, Benzo[b]thiophen-2-yl-[7-(1H-pyrrolo[2,3-b]pyridin-4-yl)-4,7-diaza-spiro[2.5]oct-4-yl]-methanone], the EC50 in test [1] (setting [9]) is over 500 nM; in test [2] (setting [10]), 100 to 500 nM; in test [3] (setting [11]), over 500 nM; in test [4] (setting [12]), 100 to 500 nM.

(Values after patent US9346809B2 (LEO PHARMA A/S, priority 2009, dated 2016).)
